Data: patent US20250221988A1 (Cullgen (Shanghai), Inc., priority 2022, published 2025)
Read-outs that look alike come from different tables or passages of the source.

Key:
MV4;11 cells = assay: Cell viability assay (CellTiter-Glo) in MV4;11 cells; format: cell-based; conditions: read-out: MV4
Experimental: (§1) Cell Culture: RS4;11, MV4;11, MOLM-13 and other cells were cultured at 37° C. with 5% CO2 in RPMI 1640 or DMEM Medium supplemented with 10% fetal bovine serum. Cells were authenticated using the short tandem repeat (STR) assays. Mycoplasma test results were negative.
(§2) Cell viability assays: Cells were seeded at a density of 5000 cells per well in 96-well assay plates and treated with test compounds following a 8-point or 12-point 3-fold serial dilution. Three days later, cell viability was determined using the CellTiter-Glo assay kit according to the manufacturer's instructions. The dose-response curves were determined and IC50 values were calculated using the GraphPad Prism software following a nonlinear regression (least squares fit) method.
The IC50 values (nM) of each compound were determined in MV4;11 and MOLM-13 cells with or without gilteritinib (10 nM for MV4;11; and 20 nM for MOML-13) as described in the Materials and Methods subsection and calculated using the GraphPad Prism 5.0 software.

MOLM-13 cells = assay: Cell viability assay (CellTiter-Glo) in MOLM-13 cells; format: cell-based
Experimental: as §1
as §2, with “method. […]” for “method.”

[1] = Homo sapiens, MV4-11, 72 h, MV4;11 cells, compound alone, three days, 11 IC50
[2] = MV4;11 cells, with 10 nM gilteritinib, three days, 11 IC50 (nM) + 10 nM Gil
[3] = Homo sapiens, 72 h, MOLM-13 cells, compound alone, three days, read-out: MOLM-13 IC50
[4] = MOLM-13 cells, with gilteritinib, three days, read-out: MOLM-13 IC50 (nM) + 10 nM Gil
[5] = Homo sapiens, MV4-11, 72 h, 11 IC50 (nM)
[6] = 11 IC50 (nM) + 10 nM Gil, MV4;11 cells, with 10 nM gilteritinib, three days
[7] = Homo sapiens, MOLM-13, 72 h, read-out: MOLM-13 IC50 (nM)
[8] = read-out: MOLM-13 IC50 (nM) + 10 nM Gil, MOLM-13 cells, with gilteritinib, three days

Compound | IC50 (MV4;11 cells; [1]) [nM] | IC50 (MV4;11 cells; [2]) [nM] | IC50 (MOLM-13 cells; [3]) [nM] | IC50 (MOLM-13 cells; [4]) [nM] | IC50 (MV4;11 cells; [5]) [nM] | IC50 (MV4;11 cells; [6]) [nM] | IC50 (MOLM-13 cells; [7]) [nM] | IC50 (MOLM-13 cells; [8]) [nM] | sensitization of AML cells to GSPT1 degraders by FLT3 inhibition (MOLM-13 cells; MOLM-13 cells, with or without 20 nM gilteritinib, 3 days)
Nc1cnc2c(c1)c(C1CC1)nn2[C@H]1C[C@H](CNc2ccc3c(c2)C(=O)N(C2CCC(=O)NC2=O)C3=O)C1 (stereo partly drawn) [GS-756, 5-(((Trans-3-(5-amino-3-cyclopropyl-1H-pyrazolo[3,4-b]pyridin-1-yl)cyclobutyl)methyl)amino)-2-(2,6-dioxopiperidin-3-yl)isoindoline-1,3-dione] | > 1000 | – | > 1000 | – | – | – | – | – | –
Cn1ccc2nc(-c3cn([C@H]4C[C@H](CNc5ccc6c(c5)C(=O)N(C5CCC(=O)NC5=O)C6=O)C4)nc3C3CC3)ccc21 (stereo partly drawn) [GS-695, 5-(((Trans-3-(3-cyclopropyl-4-(1-methyl-1H-pyrrolo[3,2-b]pyridin-5-yl)-1H-pyrazol-1-yl)cyclobutyl)methyl)amino)-2-(2,6-dioxopiperidin-3-yl)isoindoline-1,3-dione] | 10 to 100 | < 10 | 10 to 100 | < 10 | – | – | – | – | –
CC(C)n1ncc2ccc(-c3cn([C@H]4C[C@H](CNc5ccc6c(c5)C(=O)N(C5CCC(=O)NC5=O)C6=O)C4)nc3C3CC3)nc21 (stereo partly drawn) [GS-730, 5-(((Trans-3-(3-cyclopropyl-4-(1-isopropyl-1H-pyrazolo[3,4-b]pyridin-6-yl)-1H-pyrazol-1-yl)cyclobutyl)methyl)amino)-2-(2,6-dioxopiperidin-3-yl)isoindoline-1,3-dione] | – | – | – | – | 10 to 100 | 10 to 100 | 100 to 1000 | 10 to 100 | –
O=C1CCC(N2C(=O)c3ccc(NC[C@H]4C[C@H](n5cc(Cc6ccccc6)c(C6CC6)n5)C4)cc3C2=O)C(=O)N1 (stereo partly drawn) [GS-735, 5-(((Trans-3-(4-benzyl-3-cyclopropyl-1H-pyrazol-1-yl)cyclobutyl)methyl)amino)-2-(2,6-dioxopiperidin-3-yl)isoindoline-1,3-dione] | – | – | – | – | 10 to 100 | < 10 | 10 to 100 | < 10 | –
O=C1CCC(N2C(=O)c3ccc(NCCCn4cc(-c5cnc6ccccc6n5)c(C5CC5)n4)cc3C2=O)C(=O)N1 (stereo not shown) [GS-642, 5-((3-(3-Cyclopropyl-4-(quinoxalin-2-yl)-1H-pyrazol-1-yl)propyl)amino)-2-(2,6-dioxopiperidin-3-yl)isoindoline-1,3-dione] | 10 to 100 | < 10 | 10 to 100 | < 10 | – | – | – | – | –
O=C1CCC(N2C(=O)c3ccc(NC[C@H]4C[C@H](n5cc(-c6ncccc6[C@H]6C[C@@H](O)C6)c(C6CC6)n5)C4)cc3C2=O)C(=O)N1 (stereo partly shown) [GS-771] | 10 to 100 | < 10 | 10 to 100 | 10 to 100 | – | – | – | – | –
Cc1nc(-c2cn(C3CC(F)(CNc4ccc5c(c4)C(=O)N(C4CCC(=O)NC4=O)C5=O)C3)nc2C2CC2)ccc1F (stereo not drawn) [GS-723, 5-(((Trans-3-(3-cyclopropyl-4-(5-fluoro-6-methylpyridin-2-yl)-1H-pyrazol-1-yl)-1-fluorocyclobutyl)methyl)amino)-2-(2,6-dioxopiperidin-3-yl)isoindoline-1,3-dione] | 100 to 1000 | 10 to 100 | 100 to 1000 | 10 to 100 | – | – | – | – | –
O=C1CCC(N2C(=O)c3ccc(NCCC4CC5(C4)CC(n4nc(C6CC6)c6ccccc64)C5)cc3C2=O)C(=O)N1 (stereo not shown) [GS-783, 5-((2-(6-(3-Cyclopropyl-1H-indazol-1-yl)spiro[3.3]heptan-2-yl)ethyl)amino)-2-(2,6-dioxopiperidin-3-yl)isoindoline-1,3-dione] | 10 to 100 | 10 to 100 | 10 to 100 | 10 to 100 | – | – | – | – | –
O=C1CCC(N2C(=O)c3ccc(NC[C@H]4C[C@H](n5cc(-c6ccc7cc[nH]c7n6)c(C6CC6)n5)C4)cc3C2=O)C(=O)N1 (stereo partly drawn) [GS-721, 5-(((Trans-3-(3-cyclopropyl-4-(1H-pyrrolo[2,3-b]pyridin-6-yl)-1H-pyrazol-1-yl)cyclobutyl)methyl)amino)-2-(2,6-dioxopiperidin-3-yl)isoindoline-1,3-dione] | < 10 | < 10 | 10 to 100 | < 10 | – | – | – | – | –
O=C1CCC(N2C(=O)c3ccc(NC[C@H]4C[C@H](n5cc(-c6ccc7[nH]ccc7n6)c(C6CC6)n5)C4)cc3C2=O)C(=O)N1 (stereo partly drawn) [GS-720, 5-(((Trans-3-(3-cyclopropyl-4-(1H-pyrrolo[3,2-b]pyridin-5-yl)-1H-pyrazol-1-yl)cyclobutyl)methyl)amino)-2-(2,6-dioxopiperidin-3-yl)isoindoline-1,3-dione] | 10 to 100 | 10 to 100 | 100 to 1000 | 10 to 100 | – | – | – | – | –
Cn1nccc1-c1cn([C@H]2C[C@H](CNc3ccc4c(c3)C(=O)N(C3CCC(=O)NC3=O)C4=O)C2)nc1C1CC1 (stereo partly drawn) [GS-690, 5-(((Trans-3-(3′-cyclopropyl-2-methyl-1′H,2H-[3,4′-bipyrazol]-1′-yl)cyclobutyl)methyl)amino)-2-(2,6-dioxopiperidin-3-yl)isoindoline-1,3-dione] | > 1000 | – | > 1000 | – | – | – | – | – | –

Continued, in another order:

IC50 (MV4;11 cells; [1]) [nM] | IC50 (MV4;11 cells; [2]) [nM] | IC50 (MOLM-13 cells; [3]) [nM] | IC50 (MOLM-13 cells; [4]) [nM] | Compound | IC50 (MV4;11 cells; [5]) [nM] | IC50 (MV4;11 cells; [6]) [nM] | IC50 (MOLM-13 cells; [7]) [nM] | IC50 (MOLM-13 cells; [8]) [nM] | sensitization of AML cells to GSPT1 degraders by FLT3 inhibition (MOLM-13 cells; MOLM-13 cells, with or without 20 nM gilteritinib, 3 days)
10 to 100 | 10 to 100 | 10 to 100 | 10 to 100 | CN1CCC(n2ncc3cnc(-c4cn([C@H]5C[C@H](CNc6ccc7c(c6)C(=O)N(C6CCC(=O)NC6=O)C7=O)C5)nc4C4CC4)cc32)CC1 (stereo partly drawn) [GS-770, 5-(((Trans-3-(3-cyclopropyl-4-(1-(1-methylpiperidin-4-yl)-1H-pyrazolo[4,3-c]pyridin-6-yl)-1H-pyrazol-1-yl)cyclobutyl)methyl)amino)-2-(2,6-dioxopiperidin-3-yl)isoindoline-1,3-dione] | – | – | – | – | –
< 10 | < 10 | < 10 | < 10 | O=C1CCC(N2C(=O)c3ccc(NC[C@H]4C[C@H](n5cc(-c6cnc7cc(N8CC(O)C8)ccc7n6)c(C6CC6)n5)C4)cc3C2=O)C(=O)N1 (stereo partly drawn) [GS-712, 5-(((Trans-3-(3-cyclopropyl-4-(6-(3-hydroxyazetidin-1-yl)quinoxalin-2-yl)-1H-pyrazol-1-yl)cyclobutyl)methyl)amino)-2-(2,6-dioxopiperidin-3-yl)isoindoline-1,3-dione] | – | – | – | – | –
10 to 100 | < 10 | 100 to 1000 | 10 to 100 | Cn1ncc2cncc(-c3cn([C@H]4C[C@H](CNc5ccc6c(c5)C(=O)N(C5CCC(=O)NC5=O)C6=O)C4)nc3C3CC3)c21 (stereo partly drawn) [GS-781, 5-(((Trans-3-(3-cyclopropyl-4-(1-methyl-1H-pyrazolo[4,3-c]pyridin-7-yl)-1H-pyrazol-1-yl)cyclobutyl)methyl)amino)-2-(2,6-dioxopiperidin-3-yl)isoindoline-1,3-dione] | – | – | – | – | –
< 10 | < 10 | 10 to 100 | < 10 | CN1CC(n2cc3cnc(-c4cn([C@H]5C[C@H](CNc6ccc7c(c6)C(=O)N(C6CCC(=O)NC6=O)C7=O)C5)nc4C4CC4)cc3n2)C1 (stereo partly drawn) [GS-680, 5-(((Trans-3-(3-cyclopropyl-4-(2-(1-methylazetidin-3-yl)-2H-pyrazolo[4,3-c]pyridin-6-yl)-1H-pyrazol-1-yl)cyclobutyl)methyl)amino)-2-(2,6-dioxopiperidin-3-yl)isoindoline-1,3-dione] | – | – | – | – | –
< 10 | < 10 | < 10 | < 10 | O=C1CCC(N2C(=O)c3ccc(NC[C@H]4C[C@H](n5cc(-c6cc7nn(C8CC(O)C8)cc7cn6)c(C6CC6)n5)C4)cc3C2=O)C(=O)N1 (stereo partly drawn) [GS-750, 5-(((Trans-3-(3-cyclopropyl-4-(2-(3-hydroxycyclobutyl)-2H-pyrazolo[4,3-c]pyridin-6-yl)-1H-pyrazol-1-yl)cyclobutyl)methyl)amino)-2-(2,6-dioxopiperidin-3-yl)isoindoline-1,3-dione] | – | – | – | – | FLT3 inhibition sensitizes AML cells
